Biological target: T1, glucocerebrosidase (Gcase) (Homo sapiens, UniProt P04062)
T1 construct: micellar solution containing 10 nM GCase and 100 nM saposin C
T1 sequence (P04062 40-536): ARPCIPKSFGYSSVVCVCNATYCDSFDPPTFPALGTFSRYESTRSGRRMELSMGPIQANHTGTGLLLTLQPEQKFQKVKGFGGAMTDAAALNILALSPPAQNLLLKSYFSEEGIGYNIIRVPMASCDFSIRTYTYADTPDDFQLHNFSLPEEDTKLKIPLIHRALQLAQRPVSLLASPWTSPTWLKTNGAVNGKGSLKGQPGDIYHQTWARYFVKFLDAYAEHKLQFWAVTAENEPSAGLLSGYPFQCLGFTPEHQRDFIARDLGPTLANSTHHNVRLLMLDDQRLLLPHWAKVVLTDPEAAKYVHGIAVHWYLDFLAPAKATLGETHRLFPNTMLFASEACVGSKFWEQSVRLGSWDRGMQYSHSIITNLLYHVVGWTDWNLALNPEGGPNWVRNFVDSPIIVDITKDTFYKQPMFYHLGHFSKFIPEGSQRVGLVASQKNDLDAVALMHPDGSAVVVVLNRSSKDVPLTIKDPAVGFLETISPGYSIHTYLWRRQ
Assay: Glucocerebrosidase (Gcase) activation assay with 4-methylumbelliferyl-beta-D-glucopyranoside substrate, saposin C and phosphatidylserine/triton micelles, fluorescence readout
Format: biochemical
Summary of the method: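 Fluorescence (ex 365 nm, em 440 nm) read after glycine pH 12.5 stop of a 15 min room-temperature reaction. GCase 10 nM plus saposin C 100 nM in PS/triton micelles, pH 4.7, preincubated 30 min with compound; substrate solution held 2 mM 4-MU-beta-glucoside. Screened at 1.0 and 0.1 μM; 8-point, 3-fold curves from 5 μM top.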

| Percent Gcase Activation, 0.1 μM Test Compound | Percent Gcase Activation, 1 μM Test Compound | SMILES |
| --- | --- | --- |
| * (less than 10% Gcase activation) | +++ (Gcase activation greater than 60%) | CO[C@H]1CC[C@@H]([C@@H](C)NC(=O)c2cnn3c(C)cc(C)nc23)CC1 [III-404] |
| *** (greater than 20% Gcase activation) | +++ (Gcase activation greater than 60%) | COc1ccc(F)c(-c2cc(C)n3ncc(C(=O)NC(C)C(F)(F)F)c3n2)c1 (stereo not drawn) [III-409] |
| *** (greater than 20% Gcase activation) | +++ (Gcase activation greater than 60%) | COc1cc(F)cc(-c2cc(C)n3ncc(C(=O)NC(C)C(F)(F)F)c3n2)c1 (stereo not drawn) [III-410] |
| *** (greater than 20% Gcase activation) | +++ (Gcase activation greater than 60%) | Cc1cc(-c2ccns2)nc2c(C(=O)NC(C3CC3)C(F)(F)F)cnn12 (stereo not drawn) [III-411] |
| * (less than 10% Gcase activation) | +++ (Gcase activation greater than 60%) | Cc1cc(-c2cccc(C(=O)N(C)C)c2)nc2c(C(=O)NC(C3CC3)C(F)(F)F)cnn12 (stereo not drawn) [III-413] |
| * (less than 10% Gcase activation) | +++ (Gcase activation greater than 60%) | CNC(=O)c1cccc(-c2cc(C)n3ncc(C(=O)NC(C4CC4)C(F)(F)F)c3n2)c1 (stereo not drawn) [III-414] |
| *** (greater than 20% Gcase activation) | +++ (Gcase activation greater than 60%) | Cc1cc(-c2cccc(-c3ncco3)c2)nc2c(C(=O)NC(C3CC3)C(F)(F)F)cnn12 (stereo not drawn) [III-416] |

Continued, molecule first:

| SMILES | Percent Gcase Activation, 0.1 μM Test Compound | Percent Gcase Activation, 1 μM Test Compound |
| --- | --- | --- |
| CO[C@H]1CC[C@H]([C@@H](C)NC(=O)c2cnn3c(C)cc(C)nc23)CC1 [III-403] | * (less than 10% Gcase activation) | ++ (Gcase activation in the range of 30% up to 60%) |
| COc1cccc(-c2cc(C)n3ncc(C(=O)NC(C)(C)C(F)(F)F)c3n2)c1 [III-405] | *** (greater than 20% Gcase activation) | +++ (Gcase activation greater than 60%) |
| Cc1cc(-c2cccc(Cl)c2)nc2c(C(=O)NC(C)(C)C(F)(F)F)cnn12 [III-406] | *** (greater than 20% Gcase activation) | +++ (Gcase activation greater than 60%) |
| CCc1cc(-c2ccccn2)nc2c(C(=O)NC(C)(C)C(F)(F)F)cnn12 [III-407] | * (less than 10% Gcase activation) | + (less than 30% Gcase activation) |
| Cc1cc(-c2ccccn2)nc2c(C(=O)NC(C)(C)C(F)(F)F)cnn12 [III-408] | ** (Gcase activation in the range of 10% up to 20%) | +++ (Gcase activation greater than 60%) |
| C#CC(C)(C)NC(=O)c1cnn2c(C)cc(-c3ccns3)nc12 [III-412] | * (less than 10% Gcase activation) | +++ (Gcase activation greater than 60%) |
| Cc1cc(-c2cccc(-n3cccn3)c2)nc2c(C(=O)NC(C3CC3)C(F)(F)F)cnn12 (stereo not drawn) [III-415] | *** (greater than 20% Gcase activation) | ++ (Gcase activation in the range of 30% up to 60%) |
| Cc1cc(-c2cccc(-c3ncccn3)c2)nc2c(C(=O)NC(C3CC3)C(F)(F)F)cnn12 (stereo not drawn) [III-417] | *** (greater than 20% Gcase activation) | +++ (Gcase activation greater than 60%) |

From patent publication US10934298B2, “Substituted pyrazolo[1,5-a]pyrimidines for the treatment of medical disorders” (BIAL—BioTech Investments, Inc., priority 2016, dated 2021)
